According to US11738031B2, “Compositions and methods for preventing or treating muscle conditions” (The Board of Trustees of the Leland Stanford Junior …, priority 2017, dated 2023):

Tests used:
MuSCs = assay: Clonal MuSC proliferation by time-lapse microscopy (38 h); format: cell-based, mouse; conditions: PGE2 24 hr
Experimental: We assayed clonal muscle stem cell proliferation by time-lapse microscopy as previously described (26, 27). […] Cells were then trypsinized and reseeded at a density of 500 cells per cm^2 surface area in hydrogel microwells with 600 μm diameter. For time-lapse microscopy we monitored cell proliferation for those wells with single cells for 38 h days after seeding and recorded images every 3 min at 10× magnification using a PALM/AxioObserver Z1 system (Carl Zeiss MicroImaging) with a custom environmental control chamber and motorized stage. We analyzed time-lapse image sequences using the Baxter Algorithms for Cell Tracking and Lineage Reconstruction to identify and track single cells and generate lineage trees (26-28, 51, 52). Viable and dead cells were distinguished in time-lapse sequences based on phase-contrast boundary and motility maintenance or loss, respectively. […] The data analysis was blinded. The researchers performing the imaging acquisition and scoring were unaware of the treatment condition given to sample groups analyzed. Clonal muscle stem cell proliferation and fate analyses: […] Cells were then trypsinized and reseeded at a density of 500 cells per cm^2 surface area in hydrogel microwells with 600 μm diameter. For time-lapse microscopy we monitored cell proliferation for those wells with single cells for 38 h days after seeding and recorded images every 3 min at 10× magnification using a PALM/AxioObserver Z1 system (Carl Zeiss MicroImaging) with a custom environmental control chamber and motorized stage. We analyzed time-lapse image sequences using the Baxter Algorithms for Cell Tracking and Lineage Reconstruction to identify and track single cells and generate lineage trees (26-28, 51, 52). Viable and dead cells were distinguished in time-lapse sequences based on phase-contrast boundary and motility maintenance or loss, respectively. […] The data analysis was blinded. The researchers performing the imaging acquisition and scoring were unaware of the treatment condition given to sample groups analyzed.

[1] = tested on: endogenous MuSCs in tibialis anterior (TA) muscles; assay: BLI of endogenous MuSC expansion after intramuscular bupivacaine/dmPGE2 (Example 4); format: in vivo, mouse
Experimental: Double-transgenic Pax7^CreERT2;Rosa26-LSL-Luc mice were generated by crossing Pax7^CreERT2 mice and Rosa26-LSL-Luc mice obtained from Jackson Laboratory (Stock #005125). These genotypes were validated by appropriate PCR-based strategies. All mice from transgenic and wild-type strains were of young age (2-4 months). All experiments were conducted using age and gender-matched controls. As depicted in the experimental scheme shown in FIG. 23A, mice were treated with five consecutive daily intraperitoneal injections of tamoxifen to activate luciferase expression under the control of the Pax7 promoter. A week after the last tamoxifen injection, the tibialis anterior (TA) muscles were injected intramuscularly with 50 μL of a drug mixture containing 0.125%, 0.25%, or 0.5% bupivacaine (BPV) (Cayman Chemical Cat #16618) and 10 μg 16,16-dimethyl prostaglandin E2 (dmPGE2; Tocris, Catalog #4027) using a 30 gauge needle on a Hamilton syringe. The contralateral TA received 50 μL of a mixture containing 0.5% bupivacaine (BPV) and DMSO vehicle as baseline sham control. Bioluminescence was assayed at days 3, 7, 10 and 14 post-injury.
Bioluminescence imaging (BLI) was performed using a Xenogen-100 system, as previously described. Briefly, mice were anesthetized using isofluorane inhalation and administered 120 μL D-luciferin (0.1 mmol/kg, reconstituted in PBS; Caliper LifeSciences) by intraperitoneal injection. BLI was acquired with between 5-60 second exposure at F-stop=1.0 at 5 minutes after luciferin injection. Digital images were recorded and analyzed using Living Image software (Caliper LifeSciences). Images were analyzed with a consistent region-of-interest (ROI) placed over each hindlimb to calculate a bioluminescence signal. A bioluminescence signal was calculated in radiance (p s^−1 cm^−2 sr^−1) value of 10^4 to define a positive threshold signal over background. BLI imaging was performed bi-weekly for 2 weeks after coinjection of BPV with dmPGE2 or vehicle.
The data in FIGS. 23A-C and 24 are shown as the mean±s.e.m. with n=6 mice. […]

`CCCCC[C@H](O)/C=C/[C@H]1[C@H](O)CC(=O)[C@@H]1C/C=C\CCCC(=O)O` [PGE2, prostaglandin E2] was tested, and the “cell sizes of tracked MuSCs” value (MuSCs) was “increase in the incidence of larger cell sizes”, the “total cells at the end of the 38 h timespan vs vehicle” value (MuSCs) was “almost twice the number of total cells” and the “entry into mitosis post-plating” value (MuSCs; 38 h tracking) was “entry into mitosis is accelerated”. The “cumulative cell divisions and cell numbers of MuSC clones” value (MuSCs; 38 h tracking, young MuSCs) was “marked increase in cumulative cell divisions and cell numbers”.

For `CCCCC(C)(C)[C@H](O)/C=C/[C@H]1[C@H](O)CC(=O)[C@@H]1C/C=C\CCCC(=O)O` [dmPGE2, 16,16-dimethyl prostaglandin E2], the “log fold change in BLI two weeks after injection” value ([1]; 50 μL into TA, BPV plus 10 μg dmPGE2 compared to BPV/vehicle, dmPGE2 only group) was “No detectable change” and the “muscle regeneration vs dmPGE2 dose” value ([1]; as stated in summary of Example 4) was “more pronounced muscle regeneration”.
